Literature values as cited in US20210195875A1 (SMC GLOBAL ASSET, INC., priority 2016, published 2021).
Entries after “also recorded” stand apart in the source; their conditions may differ.

Assays:
[1] = test system: mice; details: icv STZ alone
[2] = test system: dopaminergic neuron

CN(N=O)C(=O)N[C@H]1C(O)O[C@H](CO)[C@@H](O)[C@@H]1O (mixture of isomers) [icv STZ, streptozotocin]
aggregation of a pathologic protein such as amyloid and tau [1]: no aggregation of a pathologic protein | inflammation and neural function disorder ([1]; compared with a gene modified model): intense inflammation and neural function disorder

Cn1c(N)nc2ncc(-c3ccccc3)cc21 [PhIP, 2-amino-1-methyl-6-phenyl-1H-imidazo[4,5-b] pyridine]
toxicity in rat primary cultured cells [2]: toxicity in a dopaminergic neuron selective manner; also recorded: toxicity in a dopamine nerve selective manner
